Several values for one entry are separate records, joined by “and”; a condition that tells them apart may be missing. Equal values may be shown once.
Assays:
[1] = system: IMR90 cells; test: Cell death of IMR90 cells at the ENU doses used; type: cell-based, human; conditions: sub-lethal doses of ENU (25 and 50 μg/ml)
[2] = system: Human normal lung IMR90 fibroblasts; test: SMM-Seq detection of induced somatic SNVs in IMR90 cells treated with ENU; type: cell-based; conditions: for sSNVs frq / mutation spectra: CA count / mutation spectra: CG count / mutation spectra: CT count / mutation spectra: TA count / mutation spectra: TC count / mutation spectra: TG count: 72 hours; for sSNVs frq / sSNVs count: single biological replicate; for sSNVs frq: variants / qualified positions (SNV/1 Mb); for mutation spectra: CA count / mutation spectra: CG count / mutation spectra: CT count / mutation spectra: TA count / mutation spectra: TC count / mutation spectra: TG count: single replicate; for sSNVs count: harvested 72 hours after ENU
Procedure: Human normal lung IMR90 fibroblasts were maintained in 10% CO2 and 3% O2 atmosphere at 37° C. in DMEM (GIBCO, Grand Island, NY, USA) supplemented with 10% FBS (GIBCO). Twenty-four hours after cell seeding the culturing media was changed for media containing different doses of ENU. Cells were harvested 72 hours after ENU was applied. Complete media supplemented with ENU (SIGMA, San Louis, MO, USA) was prepared immediately before application from stock solution (100 mg/ml in 100% ethyl alcohol). Control cells were cultured in the presence of the vehicle only.
DNA from fibroblasts and hepatocytes was isolated using Quick-gDNA™ Blood MiniPrep (Zymo Research Corporation, Irvine, CA, USA) according to the manufacturer instructions and quantified using QUBIT kit (ThermoFisher Scientific, USA).
Genomic DNA was first fragmented by double digestion with restriction endonucleases AluI and MluCI (NEB, USA), overnight at 37° C. After purification using 1.5×AMPure XP beads (Beckman Coulter, USA) the fragmented DNA was further processed using NEBNext Ultra II DNA Library Prep Kit for Illumina (NEB). The adapter provided with the kit was replaced with custom adapter P5_HP6N. After double sided size-selection using AMPure XP beads (Beckman Coulter), resulting dumbbell-like product was quantified with QUBIT kit (ThermoFisher) and analyzed on 2100 Bioanalyzer instrument with High Sensitivity DNA kit (Agilent, USA). To prepare P5_HP6N adapter 86 μl of 10 μM solution of oligonucleotide 5′-TCTTC TACAGT NNNNNN AGATCG GAAGAG CACACG TCTGAA CTCCAG TC/ideoxyU/ACACTC TTTCCC TACACG ACGCTC TTCCGA TCT-3′ (IDT, USA) in 0.1×TE buffer was first exposed to 95° C. for 5′ followed by 37° C. for 5′ to form a hairpin. Next, to fill-in the extending 5′-end the self-annealed oligonucleotide was supplemented with 10 μl of Cutsmart buffer (NEB), 2 μl of 10 mM dNTPs mix (NEB) and 10 U of Klenow Fragment (3′→5′ exo-) (NEB) and incubated at 37° C. for 30′. After purification with QIAquick Nucleotide Removal Kit (QIAGEN, USA), the hairpins were digested with 10U of HpyCH4III (NEB) for 1 hour at 37° C., then purified again with QIAquick Nucleotide Removal Kit (QIAGEN) and eluted with 100 μl of EB to obtain ready to use adapter solution.
Next, for SMM sequencing library preparation samples were diluted based on assessed molar concentration. Assuming 150PE sequencing mode and 30 Gb of data per sample, the dilution coefficient (D) was calculated using the formula D=M*NA/1025, where M—sample concentration (pM); NA—Avogadro constant. Next, 1 μl of diluted sample was used as a template in pulse-RCA reaction. The pulse-RCA was performed in 20 μl reaction containing 1 μl of diluted sample, 1 μl of P5-RCA oligo (5′-[…]-3′), 25U (0.5 μl) of SD polymerase HS (BIORON Diagnostics GmbH, Germany), 2 μl of SD polymerase buffer, 1 μl of 10 mM dNTPs mix (NEB), 0.6 μl of 100 mM MgCl2, and 13.9 μl of water. The pulse-RCA program was set as follows: 92° C. for 2′ (1); 92° C. for 30″ (2); 60° C. for 30″ (3); 65° C. for 150″ (4); go to (3) 9 times; hold at 4° C. Product of amplification reaction was purified with […] AMPure XP beads and resuspended in 23 μl TE buffer. The entire volume of RC amplification was PCR amplified in 50 μl reaction volume containing 23 μl of RCA product, 25 μl of NEBNext Ultra II Q5 Master Mix and 1 μl of P5 and P7 dual index oligos. The PCR program was set as follows: 98° C. for 30″ (1); 98° C. for 10″ (2); 65° C. for 75″ (3); go to (2) 8 times (4); 65° C. for 5′ (5); 4° C. forever. The PCR product was purified with 0.7×AMPure XP beads and resuspended in 30 μl of TE buffer. After quantification with Qubit, samples were pooled and sequenced on Illumina NovaSeq instrument using 150 paired-end mode.
Conventional sequencing library was prepared by PCR amplification of adapter ligated samples in 30 μl reaction volume containing 11 μl of undiluted ligated sample, 2U of USER enzyme (NEB) 15 μl of NEBNext Ultra II Q5 Master Mix and 1 μl of P5 and P7 dual index oligos. […]

[3] = system: human primary mammary cells; test: SMM-SV somatic structural variant (SV) frequency after bleomycin; type: cell-based; conditions: two different doses of bleomycin, SMM-SV (FIG. 9C)
Source text: As explained, SMM is capable of identifying SNVs and small indels, but not SVs. This is due to the overwhelming amount of chimeric DNA fragments created during library construction. For SMM-seq and other single-molecule assays the process of linking DNA fragments to the sequencing adapters also results in random ligation of DNA fragments to each other. The resulting chimeric sequences are not distinguishable from true SVs since both strands are identical and represent the same SV (FIG. 9A). To address this problem, we used transposase-mediated tagmentation, i.e., the initial step in library preparation where high molecular weight DNA is cleaved and tagged for analysis. While commonly used in library preparation, we used it here in a different, unexpected way. Indeed, as commonly used tagmentation generates priming sites for subsequent PCR which in turn is prone to produce artificial chimeras, giving a similar problem as other approaches. […] To validate SMM-SV we evaluated somatic SV frequency in human primary mammary cells treated with two different doses of bleomycin, a potent […] known to induce somatic SVs. […]

[4] = Cond E25 (ENU 25 μg/ml), IMR90 cells
[5] = Cond E50 (ENU 50 μg/ml), IMR90 cells
[6] = IMR90 cells upon ENU treatment, mutational spectra (FIG. 2C)

CCN(N=O)C(N)=O [ENU, N-ethyl-N-nitrosourea]
cell death [1]: do not cause any noticeable cell death
sSNVs frq [2, 4]: 0.411 and 0.3226 and 0.3595
mutation spectra: CA count [2, 4]: 19 and 16 and 12
mutation spectra: CG count [2, 4]: 7 and 8 and 4
mutation spectra: CT count [2, 4]: 10 (2×) and 11
mutation spectra: TA count [2, 4]: 13 and 10 and 16
mutation spectra: TC count [2, 4]: 18 and 22 and 20
mutation spectra: TG count [2, 4]: 9 and 12 and 7
sSNVs count [2, 4]: 76 and 78 and 70
sSNVs frq [2, 5]: 0.571 and 0.5406
mutation spectra: CA count [2, 5]: 24 and 16
mutation spectra: CG count [2, 5]: 2 and 6
mutation spectra: CT count [2, 5]: 32 and 16
mutation spectra: TA count [2, 5]: 38 and 20
mutation spectra: TC count [2, 5]: 28 and 23
mutation spectra: TG count [2, 5]: 17 and 9
sSNVs count [2, 5]: 141 and 90
increase of mutation frequency versus control ([2]; ENU 50 μg/ml, IMR90 cells): more than 2 fold
mutation frequency ([2]; ENU 50 μg/ml, IMR90 cells, average±SD of three biological replicates, control 0.21±0.02, p=9.7*10-5): 0.54±0.03 SNV/1 Mb
relative representation of AT/CG mutations versus untreated control cells [2, 6]: more than 2 times
relative representation of AT/TA mutations versus untreated control cells [2, 6]: more than 2 times

bleomycin
somatic SV frequency [3]: induced SVs in a dose-dependent manner

Source: patent US20250002972A1, “METHOD FOR MEASURING SOMATIC DNA MUTATION AND DNA DAMAGE PROFILES AND A […] SUITABLE THEREFORE” (Albert Einstein College of Medicine, priority 2021, published 2025)
